Tested on: Murine AML 1498 cells
Test: murine AML 1498 implanted intravenously in C57BL/6 mice
From the text: Tumor Maintenance: Murine AML1498 cells were maintained in the mouse strain of origin (C57BL/6) and transplanted into this same inbred strain chemotherapy trials. Individual mouse body weights for each experiment were within five grams, and all mice were more than 20 grams (mean) at the start of therapy. Mice were supplied food and water ad libitum.
Treatment was started the day after implantation of AML cells.
End Points for Assessing Antitumor Activity: The following quantitative endpoints were used to assess antitumor activity
a) Percent Increase in Lifespan (% ILS): For leukemic mice: • % ILS=(T−C)/C×100; in which C=median day of death of control group and T=median day of death of treated group. Survival was the endpoint; with moribund mice sacrificed. Cause of death was verified by necropsy.
b) Calculation of Tumor Cell Kill: For leukemic survival trials, the log10 cell kill was calculated from the following formula:
[formula] where T is median day of death for treated group and C is median day of death for control group (Corbett, T. H., et al., Invest. New Drugs, 17: 17-27 (1999) and Teicher, B. A., In vivo tumor response end points, In Tumor Models in Cancer Research, B. Teicher, editor, Humana Press Inc./Totowa, N.J., pp. 593-616 (2001)). Td is determined from differences in the median days of death of the titered control groups.

[1] = total dose 80 mg/kg, qd 1-5, 5 × 10^6 cells
[2] = total dose 115 mg/kg, qd 1-5, 5 × 10^6 cells
[3] = total dose 140 mg/kg, qd 1-4, 5 × 10^6 cells

`O=C(O)/C=C/c1ccc(-c2ccc(O)c(C34CC5CC(CC(C5)C3)C4)c2)c(Cl)c1` [Example 3-Cl-AHPC, (E)-4-[3-(1-Adamantyl)-4-hydroxyphenyl]-3-chlorocinnamic acid] was tested, and the animal deaths (140 mg/kg total dose over four days) was “no animal deaths”, the “Body Wt. Loss” value [1] was “+0.0%” and the ILS [1] was 50%. The “Log cell kill” value [1] was 2.6, the “Mean Body Wt. Loss” value [1] was “+0.0 g/mouse” and the “Median Day of Tumor Death (range)” value [1] was 9 (8,9,9,9,10). For the same compound, the ILS [2] was 83%, the “Log cell kill” value [2] was 3.3 and the “Median Day of Tumor Death (range)” value [2] was 11 (10,10,11,11,11). For the same compound, the “Mean Body Wt. Loss” value (total dose 115 mg/kg, qd 1-5, 5 × 10^6 cells, negative = loss) was −1.2 g/mouse, the ILS [3] was 83% and the “Log cell kill” value [3] was 3.3. For the same compound, the “Median Day of Tumor Death (range)” value [3] was 11(10,11,11,11,11) and the “Mean Body Wt. Loss” value (total dose 140 mg/kg, qd 1-4, 5 × 10^6 cells, negative = loss) was −3.6 g/mouse.

From patent publication USRE42700E1, “Induction of apoptosis in cancer cells” (Sanford-Burnham Medical Research Institute, priority 2001, dated 2011)
